Target: T1, Acetylcholinesterase (Mus musculus, UniProt P21836)
T1 sequence (P21836 whole entry): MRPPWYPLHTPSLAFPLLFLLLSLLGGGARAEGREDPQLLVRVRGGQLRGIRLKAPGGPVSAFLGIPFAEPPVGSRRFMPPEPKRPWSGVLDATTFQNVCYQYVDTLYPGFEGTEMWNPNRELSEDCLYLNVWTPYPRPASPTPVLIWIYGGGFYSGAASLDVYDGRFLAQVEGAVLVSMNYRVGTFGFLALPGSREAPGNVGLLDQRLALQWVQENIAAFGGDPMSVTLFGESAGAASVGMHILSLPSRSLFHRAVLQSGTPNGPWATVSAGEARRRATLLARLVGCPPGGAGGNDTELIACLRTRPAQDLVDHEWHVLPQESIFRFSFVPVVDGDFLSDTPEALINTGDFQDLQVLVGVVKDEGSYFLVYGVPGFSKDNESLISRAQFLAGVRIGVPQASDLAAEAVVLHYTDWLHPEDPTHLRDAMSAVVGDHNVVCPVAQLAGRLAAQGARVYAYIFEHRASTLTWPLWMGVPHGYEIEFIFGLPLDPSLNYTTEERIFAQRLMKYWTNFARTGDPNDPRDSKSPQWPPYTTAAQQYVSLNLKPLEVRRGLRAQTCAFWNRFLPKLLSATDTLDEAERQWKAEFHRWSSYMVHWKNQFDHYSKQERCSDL
Assay: AChE Assay
Conditions: pH 7.6; 20 °C
Protocol: The inactivation of AChEs was determined using a colorimetric assay [Ellman et al., Biochem. Pharmacol., 7:88-95]. […] DTNB solution and a solution of AChE yielding a 0.1 Abs unit/min rate in PBS (2.80 mL; pH 7.6) were placed in a cuvette at 20°C. To this solution was added either: (a) 10 μL of ACN as the control, or (b) 10 μL of ligand solution (10 mM in ACN). […] The final concentrations of the reactants during enzyme assay were: 0.33 mM DTNB, 0.59 mM ATCh-I, 0.58 mM NaHCO3, and 0.05 mM inhibitor.

SMILES	IC50 [nM]
C#CCNS(=O)(=O)c1ccc(-c2c3ccc(=[N+](CC)CC)cc-3oc3cc(N(CC)CC)ccc23)c(S(=O)(=O)[O-])c1 [Lissamine propargyl sulfonamide (6)]	50
C#CCNS(=O)(=O)c1ccc(C2=c3cc4c5c(c3Oc3c2cc2c6c3CCCN6CCC2)CCC[N+]=5CCC4)c(S(=O)(=O)[O-])c1 [Texas Red propargyl sulfonamide (7)]	700

Reference: BindingDB's records for doi:10.3109/14756360903027816 (The University of Montana, 2010)
